Measurements as given in US11912701B2, “Protein kinase inhibitors for promoting liver regeneration or reducing or preventing hepatocyte death” (HEPAREGENIX GMBH, priority 2018, dated 2024).

Legend:
JNK1 = JNK1 (Homo sapiens, UniProt P45983); test: KINOMEscan competition binding assay, JNK1; design: M1/Q384; host or cells: HEK-293; settings: ratio PoC (off-target)/PoC (MKK4)
Experimental: (§1) The assay was performed by combining three components: DNA-tagged kinase; immobilized ligand; and a test compound. The ability of the test compound to compete with the immobilized ligand was measured via quantitative PCR of the DNA tag. The technology is described in detail in Fabian, M. A. et al. A small molecule-kinase interaction map for clinical kinase inhibitors. Nat. […] Nat.
(§2) For investigation of the affinity to MKK4, BRaf, MKK7 and JNK1, the kinases were produced in HEK-293 cells and subsequently tagged with DNA for qPCR detection. […] The liganded beads were blocked with excess biotin and washed with blocking buffer (SEABLOCK™ (Pierce), 1% BSA, 0.05% TWEEN®20, 1 mM DTT) to remove unbound ligand and to reduce nonspecific binding. […] All reactions were performed in polystyrene 96-well plates in a final volume of 0.135 mL. […] The kinase concentration in the eluates was measured by qPCR.
(§3) The test compounds were provided as 10 mM stock solutions. The test solutions at indicated final concentrations were prepared at DiscoverX.
(§4) Potency of representative examples against the protein kinases MKK4, BRaf, MKK7 and JNK1 expressed as residual percent of control binding (PoC), was determined at a concentration of 100 nM. The determined potencies are categorized as follows:
(§5) The binding selectivity of representative examples against the protein kinases BRaf, MKK7 and JNK1, altogether denominated as “off-targets” is determined by the ratios of PoC (off-target)/PoC (MKK4).

BRaf = molecular target: T1, BRaf (Homo sapiens, UniProt P15056); test: KINOMEscan competition binding assay, BRaf; settings: ratio PoC (off-target)/PoC (MKK4)
T1 construct: purchased ProQinase GmbH, Freiburg, Germany (33PanQinase Assay Service)
T1 sequence (P15056 whole entry, species assumed): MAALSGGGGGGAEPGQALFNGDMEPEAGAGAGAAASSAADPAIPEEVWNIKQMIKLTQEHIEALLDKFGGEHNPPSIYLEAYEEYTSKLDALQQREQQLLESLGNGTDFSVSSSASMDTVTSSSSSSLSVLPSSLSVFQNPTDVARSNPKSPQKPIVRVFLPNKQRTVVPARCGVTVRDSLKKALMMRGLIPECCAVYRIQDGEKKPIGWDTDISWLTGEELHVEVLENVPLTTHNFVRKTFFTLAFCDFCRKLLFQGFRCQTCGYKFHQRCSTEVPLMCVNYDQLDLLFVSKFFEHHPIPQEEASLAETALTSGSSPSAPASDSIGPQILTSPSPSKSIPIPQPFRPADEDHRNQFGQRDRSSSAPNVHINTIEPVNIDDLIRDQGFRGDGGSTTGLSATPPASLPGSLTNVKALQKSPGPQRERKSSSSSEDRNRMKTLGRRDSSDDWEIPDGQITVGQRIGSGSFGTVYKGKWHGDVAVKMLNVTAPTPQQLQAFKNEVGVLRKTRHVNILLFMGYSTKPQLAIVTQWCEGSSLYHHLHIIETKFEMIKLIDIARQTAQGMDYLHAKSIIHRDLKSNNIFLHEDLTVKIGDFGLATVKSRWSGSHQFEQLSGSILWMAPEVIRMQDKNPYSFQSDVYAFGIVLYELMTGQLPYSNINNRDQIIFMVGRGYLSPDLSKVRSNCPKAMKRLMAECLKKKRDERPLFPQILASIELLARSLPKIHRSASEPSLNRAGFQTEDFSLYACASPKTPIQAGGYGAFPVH
Experimental: as §1, §2, §3, §4, §5

MKK4 [1] = molecular target: T2, MKK4 (Homo sapiens, UniProt P45985); test: 33PanQinase enzyme assay, MKK4; type: biochemical; settings: single concentration 100 nM; read-out: Potency MKK4 (residual activity, assay at single concentration)
T2 construct: purchased ProQinase GmbH, Freiburg, Germany (33PanQinase Assay Service)
T2 sequence (P45985 1-399): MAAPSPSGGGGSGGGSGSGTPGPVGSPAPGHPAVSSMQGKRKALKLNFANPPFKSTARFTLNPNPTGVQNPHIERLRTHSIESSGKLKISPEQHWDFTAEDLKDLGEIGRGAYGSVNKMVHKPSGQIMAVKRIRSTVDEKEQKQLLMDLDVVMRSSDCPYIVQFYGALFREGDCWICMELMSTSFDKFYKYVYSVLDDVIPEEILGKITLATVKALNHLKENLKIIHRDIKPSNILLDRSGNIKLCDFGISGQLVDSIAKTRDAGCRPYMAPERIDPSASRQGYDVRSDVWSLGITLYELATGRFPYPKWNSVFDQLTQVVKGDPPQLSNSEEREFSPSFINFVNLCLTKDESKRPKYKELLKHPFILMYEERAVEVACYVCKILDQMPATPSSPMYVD
Procedure, shortened: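 Radiometric 33PanQinase assay: kinase, substrate, ATP and compound in standard buffer, 60 min at 30 °C; 33Pi incorporation read by scintillation counting.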

MKK4 [2] = molecular target: T3, MKK4 (Homo sapiens, UniProt P45985); test: KINOMEscan competition binding assay, MKK4; settings: residual percent of control binding (PoC) at 100 nM
T3 construct: S84/D399; host or cells: HEK-293
T3 sequence (P45985 84-399): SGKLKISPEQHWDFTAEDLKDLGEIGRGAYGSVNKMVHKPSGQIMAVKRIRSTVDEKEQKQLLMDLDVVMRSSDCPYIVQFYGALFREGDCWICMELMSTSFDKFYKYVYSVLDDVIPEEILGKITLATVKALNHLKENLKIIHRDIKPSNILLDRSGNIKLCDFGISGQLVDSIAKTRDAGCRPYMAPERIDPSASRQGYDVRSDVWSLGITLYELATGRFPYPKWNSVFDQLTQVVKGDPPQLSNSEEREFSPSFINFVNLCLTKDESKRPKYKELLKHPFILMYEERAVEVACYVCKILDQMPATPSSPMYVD
Experimental: as §1, §2, §3
Potency of representative examples against the protein kinases MKK4, BRaf, MKK7 and JNK1 expressed as residual percent of control binding (PoC), was determined at a concentration of 100 nM. The determined potencies are categorized as follows: […]

MKK7 = molecular target: T4, MKK7 (Homo sapiens, UniProt O14733); test: KINOMEscan competition binding assay, MKK7; design: M1/R419; host or cells: HEK-293; settings: ratio PoC (off-target)/PoC (MKK4)
T4 sequence (O14733 1-419): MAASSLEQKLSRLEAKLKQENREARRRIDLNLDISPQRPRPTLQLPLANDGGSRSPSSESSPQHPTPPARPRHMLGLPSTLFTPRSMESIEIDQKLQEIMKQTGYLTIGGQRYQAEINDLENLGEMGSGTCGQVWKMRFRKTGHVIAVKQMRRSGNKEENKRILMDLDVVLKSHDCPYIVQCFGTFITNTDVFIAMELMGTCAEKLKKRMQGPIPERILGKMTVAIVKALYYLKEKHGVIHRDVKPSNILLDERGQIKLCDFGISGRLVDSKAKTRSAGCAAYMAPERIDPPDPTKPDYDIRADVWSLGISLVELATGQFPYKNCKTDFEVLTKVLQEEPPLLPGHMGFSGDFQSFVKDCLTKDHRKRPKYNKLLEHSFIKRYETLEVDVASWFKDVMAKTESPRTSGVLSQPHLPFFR
Experimental: as §1, §2, §3, §4, §5

Chain of JNK1 (P45983 1-384 isoform P45983-2): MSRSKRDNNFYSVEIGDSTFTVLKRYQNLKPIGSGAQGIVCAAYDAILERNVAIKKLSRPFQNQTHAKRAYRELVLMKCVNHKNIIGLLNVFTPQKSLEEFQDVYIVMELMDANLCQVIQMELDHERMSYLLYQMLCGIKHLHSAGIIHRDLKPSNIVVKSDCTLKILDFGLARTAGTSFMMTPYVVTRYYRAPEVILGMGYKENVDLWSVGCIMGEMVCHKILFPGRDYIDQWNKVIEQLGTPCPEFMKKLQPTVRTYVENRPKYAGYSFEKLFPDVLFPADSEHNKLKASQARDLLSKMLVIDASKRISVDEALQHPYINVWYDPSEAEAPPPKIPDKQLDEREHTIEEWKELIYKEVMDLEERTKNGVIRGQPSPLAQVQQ

Row | Structure (SMILES) | selectivity based on % Ctrl @100 nM vs. JNK1 (JNK1) | selectivity based on % Ctrl @100 nM vs. Braf (BRaf) | remaining activity at 0.1 µM (MKK4 [1]) [%] | MKK4 [% Ctrl @ 100 nM (MKK4 [2]) | selectivity based on % Ctrl @100 nM vs. MKK7 (MKK7)
1 | CCCS(=O)(=O)Nc1ccc(Br)c(C(=O)c2c[nH]c3ncc(-c4ccc(Cl)cc4)cc23)c1Br [Example 2b, N-(2,4-dibromo-3-(5-(4-chlorophenyl)-1H-pyrrolo[2,3-b]pyridine-3-carbonyl)phenyl)propane-1-sulfonamide] | ◯ (3 ≥ Ratio) | ◯ (3 ≥ Ratio) | 70 to 90 | ◯ (30 ≤ PoC) | ◯ (3 ≥ Ratio)
2 | CCCS(=O)(=O)Nc1c(Cl)ccc(C(=O)c2c[nH]c3ncc(-c4ccc(Cl)cc4)cc23)c1F [Example 2d] | + (10 ≥ ratio > 3) | + (10 ≥ ratio > 3) | 70 to 90 | + (3 ≤ PoC < 30) | + (10 ≥ ratio > 3)
3 | CCCCS(=O)(=O)Nc1ccc(F)c(C(=O)c2c[nH]c3ncc(-c4ccc(OC)cc4Cl)cc23)c1F [Example 21, N-(3-(5-(2-chloro-4-methoxyphenyl)-1H-pyrrolo[2,3-b]pyridine-3-carbonyl)-2,4-difluorophenyl)butane-1-sulfonamide] | ++ (100 ≥ ratio > 10) | ++ (100 ≥ ratio > 10) | – | ++ (1 ≤ PoC < 3) | ++ (100 ≥ ratio > 10)
4 | CCCS(=O)(=O)Nc1ccc(F)c(C(=O)c2c[nH]c3ncc(-c4ccc(N5CCN(C(C)=O)CC5)cc4)cc23)c1F [Example 24, N-(3-(5-(4-(4-acetylpiperazin-1-yl)phenyl)-1H-pyrrolo[2,3-b]pyridine-3-carbonyl)-2,4-difluorophenyl)propane-1-sulfonamide] | + (10 ≥ ratio > 3) | ◯ (3 ≥ Ratio) | – | + (3 ≤ PoC < 30) | ++ (100 ≥ ratio > 10)
5 | CCCS(=O)(=O)Nc1ccc(F)c(C(=O)c2c[nH]c3ncc(-c4ccc(OCC5COC(C)(C)O5)cc4Cl)cc23)c1F (stereo not drawn) [Example 25, N-(3-(5-(2-chloro-4-((2,2-dimethyl-1,3-dioxolan-4-yl)methoxy)phenyl)-1H-pyrrolo[2,3-b]pyridine-3-carbonyl)-2,4-difluorophenyl)propane-1-sulfonamide] | + (10 ≥ ratio > 3) | ◯ (3 ≥ Ratio) | – | + (3 ≤ PoC < 30) | + (10 ≥ ratio > 3)
6 | COc1ccc(-c2cnc3[nH]cc(C(=O)c4c(F)ccc(NS(=O)(=O)Cc5ccccc5)c4F)c3c2)cc1 [Example 26, N-(2,4-difluoro-3-(5-(4-methoxyphenyl)-1H-pyrrolo[2,3-b]pyridine-3-carbonyl)phenyl)-1-phenylmethanesulfonamide] | ++ (100 ≥ ratio > 10) | ++ (100 ≥ ratio > 10) | – | ++ (1 ≤ PoC < 3) | ++ (100 ≥ ratio > 10)
7 | O=C(c1c(F)ccc(NS(=O)(=O)Cc2ccccc2)c1F)c1c[nH]c2ncc(-c3ccc(F)cc3)cc12 [Example 28, N-(2,4-difluoro-3-(5-(4-fluorophenyl)-1H-pyrrolo[2,3-b]pyridine-3-carbonyl)phenyl)-1-phenylmethanesulfonamide] | ++ (100 ≥ ratio > 10) | ++ (100 ≥ ratio > 10) | – | ++ (1 ≤ PoC < 3) | ++ (100 ≥ ratio > 10)
8 | CCCS(=O)(=O)Nc1ccc(F)c(C(=O)c2c[nH]c3ncc(-c4ccc(OCC5COC(C)(C)O5)cc4)cc23)c1F (stereo not drawn) [Example 29, N-(3-(5-(4-((2,2-dimethyl-1,3-dioxolan-4-yl)methoxy)phenyl)-1H-pyrrolo[2,3-b]pyridine-3-carbonyl)-2,4-difluorophenyl)propane-1-sulfonamide] | ++ (100 ≥ ratio > 10) | ◯ (3 ≥ Ratio) | – | + (3 ≤ PoC < 30) | ++ (100 ≥ ratio > 10)
9 | CCCS(=O)(=O)Nc1ccc(F)c(C(=O)c2c[nH]c3ncc(-c4ccc(OCC(O)CO)cc4Cl)cc23)c1F (stereo not drawn) [Example 30, N-(3-(5-(2-chloro-4-(2,3-dihydroxypropoxy)phenyl)-1H-pyrrolo[2,3-b]pyridine-3-carbonyl)-2,4-difluorophenyl)propane-1-sulfonamide] | +++ (Ratio > 100) | ++ (100 ≥ ratio > 10) | – | +++ (PoC < 1) | +++ (Ratio > 100)
10 | CCCS(=O)(=O)Nc1ccc(F)c(C(=O)c2c[nH]c3ncc(-c4ccc(OCC(O)CO)cc4)cc23)c1F (stereo not drawn) [Example 31, N-(3-(5-(4-(2,3-dihydroxypropoxy)phenyl)-1H-pyrrolo[2,3-b]pyridine-3-carbonyl)-2,4-difluorophenyl)propane-1-sulfonamide] | +++ (Ratio > 100) | ◯ (3 ≥ Ratio) | – | +++ (PoC < 1) | +++ (Ratio > 100)
11 | CCCS(=O)(=O)Nc1ccc(F)c(C(=O)c2c[nH]c3ncc(-c4cccc(Cl)c4)cc23)c1F [Example 32, N-(3-(5-(3-chlorophenyl)-1H-pyrrolo[2,3-b]pyridine-3-carbonyl)-2,4-difluorophenyl)propane-1-sulfonamide] | + (10 ≥ ratio > 3) | ◯ (3 ≥ Ratio) | 70 to 90 | + (3 ≤ PoC < 30) | + (10 ≥ ratio > 3)
12 | CCCS(=O)(=O)Nc1ccc(F)c(C(=O)c2c[nH]c3ncc(-c4ccc(OC)cc4OC)cc23)c1F [Example 104, N-(3-(5-(2,4-dimethoxyphenyl)-1H-pyrrolo[2,3-b]pyridine-3-carbonyl)-2,4-difluorophenyl)propane-1-sulfonamide] | ++ (100 ≥ ratio > 10) | + (10 ≥ ratio > 3) | – | + (3 ≤ PoC < 30) | ++ (100 ≥ ratio > 10)
